The target in experiment [1] is T1, Muscarinic acetylcholine receptor M1 (Homo sapiens) (UniProt P11229).
T1 sequence (whole entry): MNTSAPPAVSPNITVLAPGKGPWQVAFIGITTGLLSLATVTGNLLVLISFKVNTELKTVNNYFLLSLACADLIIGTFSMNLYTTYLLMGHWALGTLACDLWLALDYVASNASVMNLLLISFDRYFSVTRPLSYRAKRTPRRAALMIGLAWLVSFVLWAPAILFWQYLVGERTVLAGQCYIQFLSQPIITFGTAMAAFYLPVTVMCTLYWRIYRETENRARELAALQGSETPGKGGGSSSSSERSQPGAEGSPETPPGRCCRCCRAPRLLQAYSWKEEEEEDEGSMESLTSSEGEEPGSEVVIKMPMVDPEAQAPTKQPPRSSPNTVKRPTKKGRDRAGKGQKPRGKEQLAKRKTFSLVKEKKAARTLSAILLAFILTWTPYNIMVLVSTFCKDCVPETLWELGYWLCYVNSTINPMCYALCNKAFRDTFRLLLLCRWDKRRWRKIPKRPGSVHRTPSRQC
Description: Antagonist activity at human muscarinic M1 receptor expressed in CHO cells assessed as inhibition of acetylcholine-induced calcium mobilization at 30 uM measured after 15 mins by fluorescence analysis. It is filed as functional, cell-based. On the set-up: scale not given: the % may be the effect or the level left. On the technique in general: Calcium flux is commonly read through the fluorescence of an indicator in the cells.

The target in experiment [2] is T2, Muscarinic acetylcholine receptor M1 (Homo sapiens, UniProt P11229).
T2 sequence (P11229 whole entry): T1 sequence (whole entry)
Description: (§1) Antagonist activity at human muscarinic M1 receptor expressed in CHO cells assessed as inhibition of acetylcholine-induced calcium mobilization by fluorescence analysis. It is filed as functional, cell-based.

The target in experiment [3] is T1, Muscarinic acetylcholine receptor M1 (Homo sapiens). Description: Antagonist activity at human muscarinic M1 receptor assessed as rightward shift in acetylcholine concentration response curve. It is filed as functional.
Experiment [4] has the same target. Description: Displacement of [3H]NMS from human muscarinic M1 receptor. (In general: In a radioligand displacement assay an active substance lowers the binding of a labelled ligand.)
For experiment [5] the target is unchanged. Described as §1. It is filed as functional, cell-based.

Calls of active or inactive are those of the source. The rule behind the calls is not given here.

In the case of `O=C(C1CN(S(=O)(=O)c2ccc3ncccc3c2)C1)N1CCN(c2ccncc2)CC1`, the Activity in experiment [1] came to 8%.
Turning to `O=C(C1CN(S(=O)(=O)c2cccc(F)c2)C1)N1CCN(c2ccncc2)CC1`, the Activity in experiment [1] was determined as 9.5%. Moreover, the IC50 in experiment [2] (read-out: IC50) turned out to be 1.7 µM.
With `O=C(C1CN(S(=O)(=O)c2cccc3cnc(Cl)cc23)C1)N1CCN(c2ccncc2)CC1`, the Activity in experiment [1] was 6%. For the same compound, the IC50 in experiment [2] (read-out: IC50) stood at 1.6 µM.
Turning to `Cn1cc(S(=O)(=O)N2CC(C(=O)N3CCN(c4ccncc4)CC3)C2)cn1`, the Activity in experiment [1] turned out to be 12.3%. For the same compound, the IC50 in experiment [2] (read-out: IC50) was determined as 1.2 µM.
Take `Cc1cc(N2CCN(C(=O)C3CN(S(=O)(=O)c4cccc5cnccc45)C3)CC2)cc(C)n1`: the Activity in experiment [1] amounted to 4.7%. For the same compound, in experiment [2] (read-out: IC50), the IC50 stood at 0.69 µM.
As for `O=C(C1CN(S(=O)(=O)c2cccnc2)C1)N1CCN(c2ccncc2)CC1`, the Activity in experiment [1] stood at 4.9%. For the same compound, in experiment [2] (read-out: IC50), the IC50 is 0.37 µM.
For `O=C(C1CN(S(=O)(=O)c2cccc3nsnc23)C1)N1CC2CN(c3ccncc3)CC2C1` (stereo not drawn), the Activity in experiment [1] was 16.2%.
Consider `O=C(C1CN(S(=O)(=O)c2cccc3cnccc23)C1)N1CCN(c2ccncn2)CC1`, for which, in experiment [1], the Activity was determined as 7.3%.
On to `O=C(C1CN(S(=O)(=O)c2cccc3c2OCO3)C1)N1CC2CN(c3ccncc3)CC2C1` (stereo not drawn), for which the Activity in experiment [1] came to 13.5%. Also, in experiment [2] (read-out: IC50), the IC50 was found to be 1.9 µM.
As to `O=C(C1CN(S(=O)(=O)c2cccnc2Cl)C1)N1CCN(c2ccncc2)CC1`, the Activity in experiment [1] stood at 8.2%. In experiment [2] (read-out: IC50), the IC50 came out at 1.3 µM.
Regarding `O=C(C1CN(S(=O)(=O)c2cccc(Cl)c2Cl)C1)N1CC2CN(c3ccncc3)CC2C1` (stereo not drawn), the Activity in experiment [1] came to 6.6%.
Regarding `O=C(C1CN(S(=O)(=O)c2cccc3ncccc23)C1)N1CC2CN(c3ccncc3)CC2C1` (stereo not drawn), in experiment [1], the Activity is 25.8%. Further, the IC50 in experiment [2] (read-out: IC50) is over 10 µM.
For `O=C(C1CN(S(=O)(=O)c2ccc3occc3c2)C1)N1CCN(c2ccncc2)CC1`, in that order: 10.5% and 2.3 µM.
In the case of `O=C(C1CN(S(=O)(=O)c2ccc(Cl)nc2)C1)N1CCN(c2ccncc2)CC1`, in experiment [1], the Activity was 5.7%. For the same compound, the IC50 in experiment [2] (read-out: IC50) amounted to 0.5 µM.
For `O=C(C1CN(S(=O)(=O)c2ccc3c(c2)OCO3)C1)N1CCN(c2ccncc2)CC1`, the result in experiment [3] and in experiment [4] was Active. Besides, the Activity in experiment [1] is 5.3%. The inhibition result in experiment [5] is “Dose-dependent effect”.
With `O=C(C1CN(S(=O)(=O)c2cccc(F)c2)C1)N1CC2CN(c3ccncc3)CC2C1` (stereo not drawn), in experiment [1], the Activity turned out to be 18.9%. Further, the IC50 in experiment [2] (read-out: IC50) is 3.2 µM.
As to `O=C(C1CCN(S(=O)(=O)c2cccc3nsnc23)CC1)N1CCN(c2ccncc2)CC1`, the IC50 entry in experiment [2] (cho) was “Not Active”.
`O=C(C1CN(S(=O)(=O)c2ccc3cn[nH]c3c2)C1)N1CCN(c2ccncc2)CC1`: in experiment [1], the Activity is 33%. For the same compound, the IC50 in experiment [2] (read-out: IC50) was over 10 µM.
For `Cc1noc(C)c1S(=O)(=O)N1CC(C(=O)N2CCN(c3ccncc3)CC2)C1`, in that order: 15.3% and 2.3 µM.
The corresponding values for `O=C(C1CN(S(=O)(=O)c2cccc3c(Cl)nccc23)C1)N1CCN(c2ccncc2)CC1` are 3.5% and 0.74 µM.
With `O=C(C1CN(S(=O)(=O)c2cccc3nsnc23)C1)N1CCN(c2ccncc2)CC1`, the Activity in experiment [1] is 10.1%. The IC50 in experiment [2] (read-out: IC50) is 2.2 µM; in experiment [2] (read-out: pIC50 (converted)), 2.09 µM.
For the compound `O=C(C1CN(S(=O)(=O)c2cccc3cnccc23)C1)N1CCN(c2ccnc(Cl)c2)CC1`, the Activity in experiment [1] was found to be 3.6%. In experiment [2] (read-out: IC50), the IC50 was found to be 0.18 µM.
Regarding `Cc1cnccc1N1CCN(C(=O)C2CN(S(=O)(=O)c3cccc4cnccc34)C2)CC1`, the Activity in experiment [1] is 7.3%. In experiment [2] (read-out: IC50), the IC50 came out at 0.51 µM.
Consider `O=C(C1CN(S(=O)(=O)c2cccc3ncccc23)C1)N1CCN(c2ccncc2)CC1`, for which, in experiment [1], the Activity came out at 8.8%.
For the compound `O=C(C1CCN(S(=O)(=O)c2cccc3nsnc23)C1)N1CCN(c2ccncc2)CC1` (racemic), the Activity in experiment [1] was 47.1%. The IC50 in experiment [2] (read-out: IC50) was over 10 µM.
For `O=C(C1CN(S(=O)(=O)c2cccc(Cl)c2)C1)N1CCN(c2ccncc2)CC1`, the Activity in experiment [1] was 20.7%.
Take `O=C(C1CN(S(=O)(=O)c2ccccc2OC(F)(F)F)C1)N1CCN(c2ccncc2)CC1`: the Activity in experiment [1] turned out to be 8.4%. The IC50 in experiment [2] (read-out: IC50) amounted to 2.5 µM.
Consider `Cc1cc2c(S(=O)(=O)N3CC(C(=O)N4CCN(c5ccncc5)CC4)C3)cccc2cn1`, for which the Activity in experiment [1] stood at 9.8%.
Regarding `O=C(C1CN(S(=O)(=O)c2cccc3nonc23)C1)N1CC2CN(c3ccncc3)CC2C1` (stereo not drawn), the Activity in experiment [1] turned out to be 12.6%. For the same compound, the IC50 in experiment [2] (read-out: IC50) was determined as 2 µM.
For `Cc1cc(N2CCN(C(=O)C3CN(S(=O)(=O)c4cccc5cnccc45)C3)CC2)ccn1`, in that order: 3.1% and 0.11 µM.
For the compound `O=C(C1CN(S(=O)(=O)c2cccc(Cl)c2Cl)C1)N1CCN(c2ccncc2)CC1`, the Activity in experiment [1] amounted to 3.5%. Also, the IC50 in experiment [2] (read-out: IC50) came to 0.84 µM.
For `Cc1nc(C(F)(F)F)c(S(=O)(=O)N2CC(C(=O)N3CCN(c4ccncc4)CC3)C2)s1`, in that order: 12.7% and 2.5 µM.
For `O=C(C1CN(S(=O)(=O)c2ccc(Cl)cn2)C1)N1CCN(c2ccncc2)CC1`, in that order: 38.5% and over 10 µM.
For `O=C(C1CN(S(=O)(=O)c2ccc3c(c2)CCO3)C1)N1CCN(c2ccncc2)CC1`, in that order: 3.6% and 0.13 µM.
With `O=C(C1CN(S(=O)(=O)c2cccc(Cl)c2F)C1)N1CCN(c2ccncc2)CC1`, the Activity in experiment [1] turned out to be 11.4%.
`O=C(C1CCCN(S(=O)(=O)c2cccc3nsnc23)C1)N1CCN(c2ccncc2)CC1` (racemic): the Activity in experiment [1] worked out at 33.4%. In addition, in experiment [2] (read-out: IC50), the IC50 is over 10 µM.
The corresponding values for `COc1ccc(S(=O)(=O)N2CC(C(=O)N3CCN(c4ccncc4)CC3)C2)cn1` are 20.6% and over 10 µM.
Take `O=C(C1CN(S(=O)(=O)c2cccc3c(Cl)nc(Cl)cc23)C1)N1CCN(c2ccncc2)CC1`: the Activity in experiment [1] was found to be 12.7%.
In the case of `O=C(C1CN(S(=O)(=O)c2cccc3nonc23)C1)N1CCN(c2ccncc2)CC1`, the IC50 in experiment [2] (read-out: IC50) turned out to be 0.43 µM.
For the compound `Cc1cc(S(=O)(=O)N2CC(C(=O)N3CCN(c4ccncc4)CC3)C2)cnc1Cl`, the Activity in experiment [1] was 4.9%.
Same read-out and setting: the same measure for `Cc1cc2c(S(=O)(=O)N3CC(C(=O)N4CC5CN(c6ccncc6)CC5C4)C3)cccc2cn1` (stereo not drawn): 14.8%.
For `O=C(C1CN(S(=O)(=O)c2ccc(C(F)(F)F)nc2)C1)N1CCN(c2ccncc2)CC1`, in experiment [1], the Activity was determined as 40.7%. Further, the IC50 in experiment [2] (read-out: IC50) was over 10 µM.
The corresponding values for `Cc1ccnc(S(=O)(=O)N2CC(C(=O)N3CCN(c4ccncc4)CC3)C2)c1` are 41.3% and over 10 µM.
Take `O=C(C1CN(S(=O)(=O)c2cccnc2Cl)C1)N1CC2CN(c3ccncc3)CC2C1` (stereo not drawn): the Activity in experiment [1] was found to be 9.9%. Moreover, the IC50 in experiment [2] (read-out: IC50) turned out to be 1.5 µM.

The values are drawn from ChEMBL document CHEMBL2057199, “Development of novel M1 antagonist scaffolds through the continued optimization of the MLPCN probe ML012” (Bioorg Med Chem Lett, 2012).
